These results are taken from patent publication US20220211684A1, “ANTIFUNGAL AGENTS FOR CANDIDA AURIS DECOLONIZATION” (Scynexis, Inc., priority 2019, published 2022).

Values after ≈ are worked out from the molar mass of the structure shown. Where two headings read alike, the source gives them in different places.

For data set [1], the system named is Candida auris. The experiment in a line: Guinea pig model of Candida auris skin infection, skin burden. The class given is in vivo, Guinea pigs. As to the method:
(§1) Guinea pigs (n=5 per group) were randomized to receive 10 or 20 or 30 mg/kg of ibrexafungerp twice daily (BID) by gavage, or vehicle control. Animals received a single dose of prednisolone at 30 mg/kg, subcutaneously, one day prior and one and three days post infection to favor immuno-compromise of the animals and facilitate the development of Candida auris skin infection. A 100 μl cell suspension containing 10^8 blastospores of Candida auris was applied to an abraded area on the back of the animals. At Day 7, tissue biopsies were examined histologically, and tissue fungal burden was analyzed by colony counts from skin samples. PK bioanalysis of ibrexafungerp plasma concentrations was conducted following the final dose (Day 7).

Data set [2] concerns Candida auris. Description: MIC50 against 102 Candida auris clinical and surveillance isolates from an outbreak in New York. To be noted: 97 isolates with variable or multidrug resistance; for MIC50: Candidozyma auris. The data set is classed as cell-based. An excerpt: Low MIC50 values for ibrexafungerp were found for 102 Candida auris clinical and surveillance isolates from an outbreak in New York. The isolates included C. auris with a variable resistance to antifungal drugs (resistance to one drug in one or two classes of antifungal drugs), multidrug-resistant isolates (resistance to two or more drugs between two classes of antifungal drugs), and pan-resistant isolates (resistance to two or more azoles, all tested echinocandins, and amphotericin B). For the 97 isolates that had variable or multidrug resistance to the other tested antifungal drugs (including fluconazole, voriconazole, itraconazole, isavuconazole, posaconazole, anidulafungin, caspofungin, micafungin, amphotericin B, and flucytosine), the ibrexafungerp MIC50 range was 0.06-0.5 μg/ml; the median and mode for ibrexafungerp MIC50 were each 0.5 μg/ml.

Data set [3] deals with Candida auris. To be noted: 100 isolates of Candida auris; cited from earlier work.
The nature of data set [4]: clinical. On the set-up: species or system humans. To be noted: human, in vivo, po. The text has this: Print 2019 February PMID: 30478166). Such features are important for the treatment and prevention of fungal infections, as well as for achieving decolonization of susceptible fungal pathogens such as Candida auris.
Data set [5] in a line: in vivo. On the set-up: species or system Guinea pigs. To be noted: guinea pig, po, 10 mg/kg. As to the method:
as §1

Data set [6] deals with Candida spp. To be noted: previous animal models of systemic Candida spp. infection; cited from earlier work.

As usually defined, the bioavailability is the share of a dose that reaches the circulation, judged against a reference dose that is usually intravenous. A higher bioavailability goes with much systemic uptake. Usually AUC(0-t) stands for the area under the concentration-time curve up to a stated or last time point. High values mean more exposure, low ones less exposure. With `CC(C)[C@@H](C)[C@@]1(C)CC[C@]2(C)[C@H]3CC[C@@H]4[C@@]5(COC[C@@]4(C)[C@@H](OC[C@](C)(N)C(C)(C)C)[C@H](n4ncnc4-c4ccncc4)C5)C3=CC[C@@]2(C)[C@@H]1C(=O)O` [ibrexafungerp, (1S,4aR,6aS,7R,8R,10aR,10bR,12aR,14R,15R)-15-[[(2R)-2-amino-2,3,3-trimethylbutyl]oxy]-8-[(1R)-1,2-dimethylpropyl]-14[5-(4-pyridinyl)-1H-1,2,4-triazol-1-yl]-1,6,6a,7,8,9,10,10a,10b,11,12,12a-dodecahydro-1,6a,8,10a-tetramethyl-4H-1,4a-propano-2H-phenanthro[1,2-c]pyran-7-carboxylic acid], the “Tissue burdens of Candida auris (skin, colony counts)” value in data set [1] (10, 20 or 30 mg/kg BID by gavage, Day 7, versus vehicle control) is recorded as “lower in all treatment groups versus in the vehicle control group”. Further, in data set [1] (Day 7 tissue biopsies, versus untreated control), the “fungal elements in biopsy samples (histology)” value was “No fungal elements were observed”. Further, the “clinical scores (crusting, inflammation)” value in data set [1] (among the active treatment groups) is recorded as “no significant differences”. In data set [2], this compound returned an MIC50 range of 0.06 to 0.5 µg/mL. Besides, in data set [2] (read-out: MIC50 median), the MIC50 was 0.5 µg/mL (≈ 0.685 µM). In addition, the MIC50 in data set [2] (read-out: MIC50 mode) is 0.5 µg/mL (≈ 0.685 µM). In data set [3], the MIC50 is recorded as 0.5 micrograms/ml, the MIC90 is 1 micrograms/ml and the MIC overall mode is listed as 1 micrograms/ml. In addition, the bioavailability in data set [4] was > 20%. The compound further gave an AUC(0-t) in data set [5] of 2800 ng·h/mL. Besides, in data set [6], the “exposures needed to achieve efficacy” value is ~11.2 µg·h/mL.
